Consider 14 molecules from paper PMC10935503 (Acta Pharmaceutica Sinica. B, 2023).

Each structure is given as a SMILES string.

What all share (type): cell-based
The test system of series [1] is HIV-1 K103N + Y181C (RES056). Briefly: microbe, parasite or virus in culture. Conditions: for EC50: Human immunodeficiency virus 1, MT4, read-out: EC50 RES056; for RF RES056: resistance fold, EC50 (mutant strain)/EC50 (WT strain); for SI RES056: selectivity index, ratio of CC50/EC50.
The nature of series [2]: Cytotoxicity in mock-infected MT-4 cells, MTT method. Conditions: human.
Series [3] deals with HIV-1 WT strain (IIIB). Briefly: Anti-HIV-1 activity in MT-4 cells, MTT method, WT strain IIIB. The following applies: for EC50: Human immunodeficiency virus 1, IIIB, MT4, read-out: EC50 IIIB.
In series [4] the test system is HIV-1 L100I. The experiment in a line: microbe, parasite or virus in culture. Conditions: for EC50: Human immunodeficiency virus 1, MT4, read-out: EC50 L100I; for RF L100I: resistance fold, EC50 (mutant strain)/EC50 (WT strain); for SI L100I: selectivity index, ratio of CC50/EC50.
The test system of series [5] is HIV-1 F227L + V106A. Briefly: microbe, parasite or virus in culture. Conditions: for EC50: Human immunodeficiency virus 1, MT4, read-out: EC50 F227L + V106A; for RF F227L + V106A: resistance fold, EC50 (mutant strain)/EC50 (WT strain); for SI F227L + V106A: selectivity index, ratio of CC50/EC50.
Series [6] deals with HIV-1 K103N. The experiment in a line: microbe, parasite or virus in culture. The following applies: for EC50: Human immunodeficiency virus 1, MT4, read-out: EC50 K103N; for RF K103N: resistance fold, EC50 (mutant strain)/EC50 (WT strain); for SI K103N: selectivity index, ratio of CC50/EC50.
Series [7] deals with HIV-1 Y188L. The experiment in a line: microbe, parasite or virus in culture. The following applies: for EC50: Human immunodeficiency virus 1, MT4, read-out: EC50 Y188L; for RF Y188L: resistance fold, EC50 (mutant strain)/EC50 (WT strain); for SI Y188L: selectivity index, ratio of CC50/EC50.
For series [8], the system named is HIV-1 Y181C. Briefly: microbe, parasite or virus in culture. The following applies: for EC50: Human immunodeficiency virus 1, MT4, read-out: EC50 Y181C; for RF Y181C: resistance fold, EC50 (mutant strain)/EC50 (WT strain); for SI Y181C: selectivity index, ratio of CC50/EC50.
Series [9] relates to HIV-1 E138K. The experiment in a line: microbe, parasite or virus in culture. The following applies: for EC50: Human immunodeficiency virus 1, MT4, read-out: EC50 E138K; for RF E138K: resistance fold, EC50 (mutant strain)/EC50 (WT strain); for SI E138K: selectivity index, ratio of CC50/EC50.

Broadly, the EC50 is the concentration at which the effect is half-maximal. A word on the CC50: it is the concentration at which the toxic effect on the cells reaches its halfway point. Higher therefore signals lower toxicity to the cells. `Cc1cc(C#N)cc(C)c1Oc1nc(Nc2ccc(C#N)cc2)nc2c1[S+]([O-])CCC2` (stereo not drawn) [16a, 4-((2-((4-Cyanophenyl)amino)-5-oxido-7,8-dihydro-6H-thiopyrano[3,2-d]pyrimidin-4-yl)oxy)-3,5-dimethylbenzonitrile]: the values for the 50% effective concentration (EC50) in series [1] and in [3] were 0.445 ± 0.0957 µM and 0.00799 ± 0.00095 µM, respectively. For the same molecule, the 50% cytotoxic concentration (CC50) at 5 days in series [2] was no less than 19.7 µM.

In series [2], `Cc1cc(C#N)cc(C)c1Oc1nc(N2CCN(Cc3ccc(S(N)(=O)=O)cc3)CC2)nc2c1SCCC2` [19a, 4-((4-(4-(4-Cyano-2,6-dimethylphenoxy)-7,8-dihydro-6H-thiopyrano[3,2-d]pyrimidin-2-yl)piperazin-1-yl)methyl)benzenesulfonamide] showed a CC50 at 5 days of 19.3 ± 3.04 µM. Also, the EC50 in series [3] was greater than 3.08 µM. Also, in [3] (MT-4 cells, MTT method, HIV-1 IIIB (WT)), the “EC50 IIIB” value is “lost potency”.

As for `Cc1cc(C#N)cc(C)c1Oc1nc(NCCn2ccc(=O)[nH]c2=O)nc2c1SCCC2` [20a, 4-((2-((2-(2,4-Dioxo-3,4-dihydropyrimidin-1(2H)-yl)ethyl)amino)-7,8-dihydro-6H-thiopyrano[3,2-d]pyrimidin-4-yl)oxy)-3,5-dimethylbenzonitrile], the EC50 is greater than 248 µM in series [1] and 0.233 ± 0.158 µM in series [3]. The same molecule returned a cytotoxic concentration (CC50) at 5 days in [2] greater than 284 µM.

For the molecule `Cc1cc(/C=C/C#N)cc(C)c1Oc1nc(NCCn2ccc(=O)[nH]c2=O)nc2c1SCCC2` [20b, (E)-3-(4-((2-((2-(2,4-Dioxo-3,4-dihydropyrimidin-1(2H)-yl)ethyl)amino)-7,8-dihydro-6H-thiopyrano[3,2-d]pyrimidin-4-yl)oxy)-3,5-dimethylphenyl)acrylonitrile], the EC50 in [1] was determined as 22.7 µM; in series [3], 0.02 ± 0.0198 µM. The same molecule registered a CC50 at 5 days in series [2] of 142 ± 31.1 µM.

For `Cc1cc(C)c(Oc2nc(NCCn3ccc(=O)[nH]c3=O)nc3c2SCCC3)c(C)c1` [20c, 1-(2-((4-(Mesityloxy)-7,8-dihydro-6H-thiopyrano[3,2-d]pyrimidin-2-yl)amino)ethyl)pyrimidine-2,4(1H,3H)-dione], the half-maximal effective concentration (EC50) was greater than 152 µM in series [1] and 0.523 ± 0.466 µM in series [3]. In series [2], this molecule gave a CC50 at 5 days of 152 ± 28.3 µM.

As to `Cc1cc(C#N)cc(C)c1Oc1nc(NC2CCN(Cc3ccc(C#N)cc3)CC2)nc2c1SCCC2` [23a, 4-((2-((1-(4-Cyanobenzyl)piperidin-4-yl)amino)-7,8-dihydro-6H-thiopyrano[3,2-d]pyrimidin-4-yl)oxy)-3,5-dimethylbenzonitrile], the EC50 in series [1] was determined as 0.263 ± 0.0971 µM; in series [3] it was 0.00444 ± 0.00139 µM. In addition, the half-maximal cytotoxic concentration (CC50) at 5 days in series [2] is 3.76 ± 0.32 µM.

`Cc1cc(C#N)cc(C)c1Oc1nc(NC2CCN(Cc3ccccc3C#N)CC2)nc2c1SCCC2` [23c, 4-((2-((1-(2-Cyanobenzyl)piperidin-4-yl)amino)-7,8-dihydro-6H-thiopyrano[3,2-d]pyrimidin-4-yl)oxy)-3,5-dimethylbenzonitrile]: the EC50 in [1] was found to be 1.16 ± 0.184 µM; in series [3], 0.0071 ± 0.00269 µM. In addition, in [2], it took 3.86 ± 1.14 µM to reach half-maximal cytotoxicity (CC50 at 5 days).

As for `Cc1cc(C#N)cc(C)c1Oc1nc(NC2CCN(Cc3cccc(S(N)(=O)=O)c3)CC2)nc2c1SCCC2` [23d, 3-((4-((4-(4-Cyano-2,6-dimethylphenoxy)-7,8-dihydro-6H-thiopyrano[3,2-d]pyrimidin-2-yl)amino)piperidin-1-yl)methyl)benzenesulfonamide], the concentration giving a half-maximal response (EC50) was 0.79 ± 0.134 µM in series [1] and 0.00465 ± 0.00065 µM in series [3]. In addition, in series [2], the cytotoxic concentration (CC50) at 5 days was found to be 5.61 ± 3.42 µM.

For the molecule `CCOC(=O)c1ccc(CN2CCC(Nc3nc4c(c(Oc5c(C)cc(C#N)cc5C)n3)SCCC4)CC2)cc1` [23e, Ethyl 4-((4-((4-(4-cyano-2,6-dimethylphenoxy)-7,8-dihydro-6H-thiopyrano[3,2-d]pyrimidin-2-yl)amino)piperidin-1-yl)methyl)benzoate], the EC50 was determined as 4.83 ± 0.517 µM in [1] and 0.0148 ± 0.0135 µM in series [3]. In addition, in [2], the midpoint of cytotoxicity, the CC50 at 5 days, lay at 65.3 ± 39.8 µM.

Regarding `Cc1cc(C#N)cc(C)c1Oc1nc(NC2CCN(Cc3ccc(N)cc3)CC2)nc2c1SCCC2` [23f, 4-((2-((1-(4-Aminobenzyl)piperidin-4-yl)amino)-7,8-dihydro-6H-thiopyrano[3,2-d]pyrimidin-4-yl)oxy)-3,5-dimethylbenzonitrile], in series [1], the 50% effective concentration (EC50) turned out to be 0.653 ± 0.236 µM, the “RF RES056” value is given as 93.3 and the “SI RES056” value is listed as 18. This molecule also showed a half-maximal cytotoxic concentration (CC50) at 5 days in [2] of 12 ± 6.47 µM. In addition, in [4], the 50% effective concentration (EC50) amounted to 0.0556 ± 0.00268 µM, the “RF L100I” value amounted to 7.9 and the “SI L100I” value is listed as 216. Further, in series [3], the EC50 turned out to be 0.007 ± 0.00104 µM. Besides, in series [5], the EC50 is 0.184 ± 0.00833 µM, the “RF F227L + V106A” value is listed as 26.3 and the “SI F227L + V106A” value is 65. Further, in series [6], the half-maximal effective concentration (EC50) came to 0.00869 µM, the “RF K103N” value amounted to 1.2 and the “SI K103N” value worked out at 1381. In series [7], the EC50 came to 0.0261 ± 0.00353 µM, the “RF Y188L” value turned out to be 3.7 and the “SI Y188L” value was found to be 460. In series [8], the EC50 was 0.0147 ± 0.00117 µM, the “RF Y181C” value is listed as 2.1 and the “SI Y181C” value came out at 816. In series [9], the 50% effective concentration (EC50) amounted to 0.0216 ± 0.00056 µM, the “RF E138K” value was 3.0 and the “SI E138K” value worked out at 556.

For `Cc1cc(C#N)cc(C)c1Oc1nc(NC2CCN(Cc3ccc(NS(C)(=O)=O)cc3)CC2)nc2c1SCCC2` [23g, N-(4-((4-((4-(4-cyano-2,6-dimethylphenoxy)-7,8-dihydro-6H-thiopyrano[3,2-d]pyrimidin-2-yl)amino)piperidin-1-yl)methyl)phenyl)methanesulfonamide], in [1], the concentration giving a half-maximal response (EC50) came out at 0.326 ± 0.185 µM, the “RF RES056” value came to 138 and the “SI RES056” value is no less than 12. Further, the cytotoxic concentration (CC50) at 5 days in series [2] was no less than 3.87 µM. Also, in [4], the EC50 stood at 0.028 ± 0.00538 µM, the “RF L100I” value amounted to 11.8 and the “SI L100I” value is reported as no less than 138. Further, the EC50 in series [3] was found to be 0.00237 ± 0.00198 µM. Besides, in [5], the 50% effective concentration (EC50) was determined as 0.165 ± 0.0408 µM, the “RF F227L + V106A” value was 69.6 and the “SI F227L + V106A” value was no less than 23. Further, in [6], the EC50 amounted to 0.00459 ± 0.00045 µM, the “RF K103N” value is on record as 1.9 and the “SI K103N” value is on record as no less than 843. Further, in [7], the EC50 stood at 0.0127 ± 0.00299 µM, the “RF Y188L” value is reported as 5.4 and the “SI Y188L” value was no less than 305. Besides, in series [8], the concentration giving a half-maximal response (EC50) was no more than 0.00829 µM, the “RF Y181C” value was no more than 3.5 and the “SI Y181C” value was no less than 467. In series [9], the EC50 worked out at 0.00866 ± 0.00054 µM, the “RF E138K” value amounted to 3.7 and the “SI E138K” value is no less than 447.

In series [2], `Cc1cc(C#N)cc(C)c1Oc1nc(NCCN2CCOCC2)nc2c1SCCC2` [compound 20d, 3,5-Dimethyl-4-((2-((2-morpholinoethyl)amino)-7,8-dihydro-6H-thiopyrano[3,2-d]pyrimidin-4-yl)oxy)benzonitrile] gave a CC50 at 5 days of 20.5 ± 11.3 µM. The EC50 in [3] came out at 5.69 ± 4.76 µM.

For `Cc1cc(C#N)cc(C)c1Oc1nc(NC2CCN(Cc3cccc(C#N)c3)CC2)nc2c1SCCC2` [compound 23b, 4-((2-((1-(3-Cyanobenzyl)piperidin-4-yl)amino)-7,8-dihydro-6H-thiopyrano[3,2-d]pyrimidin-4-yl)oxy)-3,5-dimethylbenzonitrile], the EC50 came to 0.764 ± 0.0861 µM in series [1] and 0.006 ± 0.00103 µM in [3]. The same molecule came in with a 50% cytotoxic concentration (CC50) at 5 days in series [2] of 3.78 ± 0.63 µM.

Take `Cc1cc(C#N)cc(C)c1Oc1nc(NC2CCN(c3cccc(C#N)c3)CC2)nc2c1SCCC2` [compound 27a, 4-((2-((1-(3-Cyanophenyl)piperidin-4-yl)amino)-7,8-dihydro-6H-thiopyrano[3,2-d]pyrimidin-4-yl)oxy)-3,5-dimethylbenzonitrile]: the EC50 in [1] is 0.836 ± 0.29 µM; in [3] it was 0.0102 ± 0.00757 µM. This molecule came in with a CC50 at 5 days in series [2] of 8.39 ± 5.22 µM.
